The text below walks through data of patent US20210317099A1, “SAFER, POTENT, AND FAST ACTING ANTIMICROBIAL AGENTS” (Purdue Research Foundation, priority 2020, published 2021).

Structures are written as SMILES. In brackets after ≈: the same amount, converted by molar mass.

One test concerns Staphylococcus aureus NRS384 (MRSA USA300). In words: Initial MIC screening, broth microdilution (CLSI). The test is classed as cell-based. Particulars: Staphylococcus aureus NRS384 (MRSA USA300), broth microdilution, visual reading. The procedure: Method: The minimum inhibitory concentration (MIC) of the compounds 1-187, and control antibiotics (vancomycin, linezolid) was determined using the broth microdilution method against methicillin-resistant Staphylococcus aureus (MRSA) USA 300 using the broth microdilution method according to the guidelines outlined by the Clinical and Laboratory Standards Institute (CLSI). MRSA strain was cultivated on Tryptic soy agar plates and let grow for 24 hours at 37° C. under aerobic conditions. Bacterial suspension equivalent to 0.5 McFarland standard was prepared and diluted in cation-adjusted Mueller-Hinton broth (CAMHB) to attain a bacterial concentration of 5×10^5 CFU/ml and seeded in 96-well plates. The desired concentrations of each drug and compound were added in the first row of the 96-well plates and serially diluted to achieve a concentration gradient from 64 μg/ml to 0.5 μg/mL.
For orientation: Broth dilution looks for growth in wells or tubes with falling amounts of substance.
For orientation: MIC means the lowest concentration found to suppress growth. In turn, `C=C1C(=O)O[C@H](c2ccnc3ccccc23)[C@H]1c1ccccc1` [Compound 120] came in with a minimum inhibitory concentration (MIC) of 128 µg/mL (≈ 425 µM).

The test is the same for the next values; noted with them: Staphylococcus aureus, Staphylococcus aureus NRS384 (MRSA USA300), broth microdilution, visual reading; read-out: MIC.
In the case of `O=C1OC(c2ccccc2)C(C2CCCCC2)C1CN1CCCCC1` (centres unmarked) [Compound 186], the MIC is greater than 64 µg/mL.

Take `C=C1C(=O)O[C@H](c2ccccc2)[C@@H]1c1ccc(C)cc1` [Compound 64]: the minimum inhibitory concentration (MIC) was found to be 32 µg/mL (≈ 121 µM).

As to `C=C1C(=O)O[C@H](c2ccc(N(C)C)cc2)[C@@H]1c1ccccc1` [Compound 98], the minimal inhibitory concentration (MIC) was greater than 128 µg/mL.

As to `CN(C)C[C@@H]1C(=O)O[C@H](c2ccccc2)[C@@H]1c1ccccc1` [Compound 5], the MIC came out at 16 µg/mL (≈ 54.2 µM).

As to `C=C1C(=O)O[C@H](c2cccc(Br)c2)[C@@H]1c1ccc(C#N)cc1` [Compound 1], the MIC amounted to 8 µg/mL (≈ 22.6 µM).

For the molecule `COc1ccc([C@H]2OC(=O)C(CN(C)C)[C@H]2c2ccc(OC)cc2)cc1` (some centres unmarked) [Compound 82], the minimal inhibitory concentration (MIC) was greater than 128 µg/mL.

Consider `C=C1C(=O)O[C@H](c2ccc(OC)cc2)[C@@H]1c1ccc(OC)cc1` [Compound 66], for which the MIC was 32 µg/mL (≈ 103 µM).

With `C=C1C(=O)O[C@H](c2cccc(OC)c2)[C@@H]1c1ccc(C(F)(F)F)cc1` [Compound 83], the MIC worked out at 16 µg/mL (≈ 45.9 µM).

Consider `C[C@@]1(c2ccccc2)CC(CN2CCCCC2)C(=O)O1` (some centres unmarked) [Compound 33], for which the MIC is greater than 128 µg/mL.

As to `C=C1C(=O)O[C@H](c2ccc(N)cc2)[C@@H]1c1ccccc1` [Compound 22], the MIC amounted to 32 µg/mL (≈ 121 µM).

As to `C=C1C(=O)O[C@H](c2cccc(C#N)c2)[C@@H]1c1ccc(OC)cc1` [Compound 20], the MIC worked out at 16 µg/mL (≈ 52.4 µM).

As for `O=C1OC(C2CCCCC2)[C@H](c2ccccc2)C1CN1CCCCC1` (some centres unmarked) [Compound 182], the MIC is 32 µg/mL (≈ 93.7 µM).

Consider `C=C(C(=O)OC)C(c1ccccc1)C(O)c1ccccc1` (centres unmarked) [Compound 141], for which the MIC was determined as 16 µg/mL (≈ 56.7 µM).

On to `C=C1C(=O)O[C@H](c2c(F)cccc2F)[C@@H]1c1ccccc1` [Compound 100], for which the MIC worked out at 8 µg/mL (≈ 27.9 µM).

Regarding `C=C1C(=O)O[C@H](c2ccc(OCc3ccccc3)c(OC)c2)[C@@H]1c1ccccc1Br` [Compound 85], the MIC is greater than 128 µg/mL.

`C=C1C(=O)O[C@H](c2ccccc2)[C@H]1c1ccc2ccccc2c1` [Compound 115]: the minimum inhibitory concentration (MIC) amounted to 2 µg/mL (≈ 6.66 µM).

On to `C=C1C(=O)O[C@H](c2ccc(OC)cc2)[C@@H]1C` [Compound 117], for which the MIC was greater than 128 µg/mL.

For `Cc1ccc([C@@H]2[C@H](CN(C)C)C(=O)O[C@@H]2c2ccc(C)cc2)cc1` [Compound 6], the MIC is 32 µg/mL (≈ 98.9 µM).

For `C=C1C(=O)O[C@H](c2ccccc2OC)[C@@H]1c1cccc(C#N)c1` [Compound 49], the MIC was 16 µg/mL (≈ 52.4 µM).

With `O=C1OC[C@H](/C=C/c2ccccc2)[C@@H]1CN1CCCCC1` [Compound 46], the minimum inhibitory concentration (MIC) is greater than 128 µg/mL.

For the molecule `CN(C)CC1C(=O)O[C@H](c2ccccc2)[C@H]1c1ccccc1` (some centres unmarked) [Compound 11], the MIC was 32 µg/mL (≈ 108 µM).

Regarding `C=C1C(=O)O[C@H](c2cccc(F)c2)[C@@H]1CCC` [Compound 84], the minimum inhibitory concentration (MIC) was greater than 128 µg/mL.

For `C=C1C(=O)O[C@H](c2ccccc2OC)[C@@H]1c1ccc(C(F)(F)F)cc1` [Compound 77], the MIC stood at 8 µg/mL (≈ 23 µM).

In the case of `COc1ccc([C@@H]2[C@H](CN(C)C)C(=O)O[C@@H]2c2ccc(C#N)cc2)cc1` [Compound 9], the MIC is 128 µg/mL (≈ 365 µM).

As for `C=C1C(=O)O[C@H](c2ccc(C(F)(F)F)cc2)[C@@H]1c1cccc(Br)c1` [Compound 88], the MIC worked out at 16 µg/mL (≈ 40.3 µM).

With `CCN(CC)CC1C(=O)O[C@H](c2ccc3ccccc3c2)[C@@H]1c1ccccc1` (some centres unmarked) [Compound 96], the MIC was greater than 128 µg/mL.

As to `C=C1C(=O)O[C@H](c2c(OC)cc(OC)cc2OC)[C@@H]1c1ccc(C#N)cc1` [Compound 44], the MIC was greater than 128 µg/mL.

Turning to `C=C1C(=O)O[C@H](c2ccc(Br)cc2)[C@@H]1c1ccc(C#N)cc1` [Compound 13], the minimum inhibitory concentration (MIC) was 4 µg/mL (≈ 11.3 µM).
